Laboratory results published in US20190375708A1 (VenatoRx Pharmaceuticals, Inc., priority 2018, published 2019).

What was measured:
[1] = In vitro cytotoxicity assay (MTT cell viability) in HepG2 cells; format: cell-based, human; conditions: human
Procedure, shortened: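 Parental HepG2 cells in EMEM + 10% FBS were exposed to compounds (8 half-log dilutions, 30 μM to 1.0 nM) for 7 days at 37 °C, 5% CO2. MTT was then added for 3-4 h, formazan dissolved in DMSO and absorbance read at 492 nm; CC50 came from 4-parameter fits against vehicle controls.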

[2] = system: HBV replication in HepAD38 cells; assay: Anti-HBV replication assay in HepAD38 cells (QPCR of extracellular HBV DNA); format: cell-based, HBV (genotype D, serotype ayw); conditions: Hepatitis B virus, 168 h, 7 days incubation, extracellular HBV DNA by QPCR, read-out: Anti-HBV EC50
Procedure, shortened: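 Steps: seed HepAD38 overnight without tetracycline; refresh medium and add 1 log10 serial dilutions ([…]); incubate 7 days at 37 °C; quantify supernatant HBV DNA by QPCR; derive EC50 from a 4-parameter dose-response fit.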

SMILES	CC50 at 7 days [1] [µM]	EC50 [2] [µM]
Cc1c(C(=O)Nc2ccc(F)nc2)c(C)n(C)c1C(=O)C(=O)N[C@]1(C)CC[C@H](O)CC1 [Example 240, N-(6-fluoropyridin-3-yl)-5-(2-(((1s,4s)-4-hydroxy-1-methylcyclohexyl)amino)-2-oxoacetyl)-1,2,4-trimethyl-1H-pyrrole-3-carboxmaide]	> 30	0.05 to 0.499
Cc1cc(NC(=O)c2c(C)c(C(=O)C(=O)Nc3ccc(C(F)(F)F)nc3)n(C)c2C)ccc1F [Example 264, N-(4-fluoro-3-methylphenyl)-1,2,4-trimethyl-5-(2-oxo-2-((6-(trifluoromethyl)pyridin-3-yl)amino)acetyl)-1H-pyrrole-3-carboxamide]	5 to 30	< 0.05
Cc1cc(NC(=O)c2c(C)c(C(=O)C(=O)NC(C)(C)CO)n(CCO)c2C)ccc1F [Example 50, N-(4-fluoro-3-methylphenyl)-5-(2-((1-hydroxy-2-methylpropan-2-yl)amino)-2-oxoacetyl)-1-(2-hydroxyethyl)-2,4-dimethyl-1H-pyrrole-3-carboxamide]	> 30	> 1
Cc1c(C(=O)Nc2ccc(F)c(F)c2)c(C)n(C)c1C(=O)C(=O)Nc1ccc(F)cn1 [Example 295, N-(3,4-difluorophenyl)-5-(2-((5-fluoropyridin-2-yl)amino)-2-oxoacetyl)-1,2,4-trimethyl-1H-pyrrole-3-carboxamide]	5 to 30	< 0.05
Cc1cc(NC(=O)c2c(Cl)c(C(=O)C(=O)N[C@H]3COC[C@@H]3O)n3c2CCCC3)ccc1F [Example 505, 2-chloro-N-(4-fluoro-3-methylphenyl)-3-(2-(((3S,4R)-4-hydroxytetrahydrofuran-3-yl)amino)-2-oxoacetyl)-5,6,7,8-tetrahydroindolizine-1-carboxamide]	> 30	0.5 to 1
Cc1cc(NC(=O)c2c(C)c(C(=O)C(=O)N[C@H]3CCC[C@H](O)C3)n(C)c2C)ccc1F [Example 618, N-(4-fluoro-3-methylphenyl)-5-(2-(((1S,3S)-3-hydroxycyclohexyl)amino)-2-oxoacetyl)-1,2,4-trimethyl-1H-pyrrole-3-carboxamide]	> 30	< 0.05
Cc1noc([C@H](C)NC(=O)C(=O)c2c(Cl)c(C(=O)Nc3ccc(F)c(Cl)c3)c3n2CCC3)n1 [Example 553, (S)-6-chloro-N-(3-chloro-4-fluorophenyl)-5-(2-((1-(3-methyl-1,2,4-oxadiazol-5-yl)ethyl)amino)-2-oxoacetyl)-2,3-dihydro-1H-pyrrolizine-7-carboxamide]	5 to 30	< 0.05
COCC(C)(C)NC(=O)C(=O)c1c(C)c(C(=O)Nc2ccc(F)c(C)c2)c(C)n1CCF [Example 241, N-(4-fluoro-3-methylphenyl)-1-(2-fluoroethyl)-5-(2-((1-methoxy-2-methylpropan-2-yl)amino)-2-oxoacetyl)-2,4-dimethyl-1H-pyrrole-3-carboxamide]	> 30	< 0.05
Cc1cc(NC(=O)c2c(Cl)c(C(=O)C(=O)NC3(CO)CC(F)(F)C3)n3c2CCC3)ccc1F [Example 548, 6-chloro-5-(2-((3,3-difluoro-1-(hydroxymethyl)cyclobutyl)amino)-2-oxoacetyl)-N-(4-fluoro-3-methylphenyl)-2,3-dihydro-1H-pyrrolizine-7-carboxamide]	5 to 30	< 0.05
Cc1cc(NC(=O)c2c(C)c(C(=O)C(=O)N[C@H]3CC[C@H](C(C)(C)O)CC3)n(C)c2C)ccc1F [Example 677, N-(4-fluoro-3-methylphenyl)-5-(2-(((1r,4r)-4-(2-hydroxypropan-2-yl)cyclohexyl)amino)-2-oxoacetyl)-1,2,4-trimethyl-1H-pyrrole-3-carboxamide]	> 30	< 0.05
CC(=O)N1CCC[C@@H](NC(=O)C(=O)c2c(C)c(C(=O)Nc3ccc(F)c(C)c3)c(C)n2C)C1 [Example 639, (R)-5-(2-((1-acetylpiperidin-3-yl)amino)-2-oxoacetyl)-N-(4-fluoro-3-methylphenyl)-1,2,4-trimethyl-1H-pyrrole-3-carboxamide]	> 30	< 0.05
Cc1cc(NC(=O)c2c(C)c(C(=O)C(=O)NC3(C)CC[C@@H](O)[C@@H](O)C3)n(C)c2C)ccc1F (stereo partly drawn) [Example 702, 5-(2-(((3S,4R)-3,4-dihydroxy-1-methylcyclohexyl)amino)-2-oxoacetyl)-N-(4-fluoro-3-methylphenyl)-1,2,4-trimethyl-1H-pyrrole-3-carboxamide]	> 30	< 0.05
Cc1cc(NC(=O)c2c(C)c(C(=O)C(=O)Nc3ccn(CCO)n3)n(C)c2C)ccc1F [Example 307, N-(4-fluoro-3-methylphenyl)-5-(2-((1-(2-hydroxyethyl)-1H-pyrazol-3-yl)amino)-2-oxoacetyl)-1,2,4-trimethyl-1H-pyrrole-3-carboxamide]	> 30	< 0.05
Cc1c(C(=O)Nc2ccn(C)n2)c2n(c1C(=O)C(=O)NC(C)(C)CO)CCCC2 [Example 756, 3-(2-((1-hydroxy-2-methylpropan-2-yl)amino)-2-oxoacetyl)-2-methyl-N-(1-methyl-1H-pyrazol-3-yl)-5,6,7,8-tetrahydroindolizine-1-carboxamide]	> 30	0.05 to 0.499
O=C(N[C@H]1COC[C@@H]1O)C(=O)c1c(Cl)c(C(=O)Nc2ccc(F)c(Cl)c2)c2n1CCC2 [Example 563, 6-chloro-N-(3-chloro-4-fluorophenyl)-5-(2-(((3S,4R)-4-hydroxytetrahydrofuran-3-yl)amino)-2-oxoacetyl)-2,3-dihydro-1H-pyrrolizine-7-carboxamide]	5 to 30	< 0.05
Cc1cc(NC(=O)c2c(C)c(C(=O)C(=O)NCCCN3CCOCC3)n(C)c2C)ccc1F [Example 301, N-(4-fluoro-3-methylphenyl)-1,2,4-trimethyl-5-(2-((3-morpholinopropyl)amino)-2-oxoacetyl)-1H-pyrrole-3-carboxamide]	> 30	< 0.05
Cc1cc(NC(=O)c2c(C)c(C(=O)C(=O)NCc3cnc(N)s3)n(C)c2C)cnc1F [Example 171, 5-(2-(((2-aminothiazol-5-yl)methyl)maino)-2-oxoacetyl)-N-(6-fluoro-5-methylpyridin-3-yl)-1,2,4-trimethyl-1H-pyrrole-3-carboxamide]	> 30	< 0.05
Cc1cc(NC(=O)c2c(C)c(C(=O)C(=O)N[C@H]3CNC(=O)C34CC4)n(C)c2C)ccc1F [Example 710, (R)-N-(4-fluoro-3-methylphenyl)-1,2,4-trimethyl-5-(2-oxo-2-((4-oxo-5-azaspiro[2.4]heptan-7-yl)amino)acetyl)-1H-pyrrole-3-carboxamide]	> 30	< 0.05
Cc1cc(NC(=O)c2c(C)c(C(=O)C(=O)NC(C)(C)c3nc(CN(C)C)no3)n3c2CCCC3)ccc1F [Example 437, 3-(2-((2-(3-((dimethylamino)methyl)-1,2,4-oxadiazol-5-yl)propan-2-yl)amino)-2-oxoacetyl)-N-(4-fluoro-3-methylphenyl)-2-methyl-5,6,7,8-tetrahydroindolizine-1-carboxamide]	> 30	0.05 to 0.499
Cc1cc(NC(=O)c2c(C)c(C(=O)C(=O)NC3(C)CCN(C(=O)c4cn[nH]c4)CC3)n(C)c2C)ccc1F [Example 709, N-(4-fluoro-3-methylphenyl)-1,2,4-trimethyl-5-(2-((4-methyl-1-(1H-pyrazole-4-carbonyl)piperidin-4-yl)amino)-2-oxoacetyl)-1H-pyrrole-3-carboxamide]	> 30	< 0.05
Cc1cc(NC(=O)C(=O)c2c(C)c(C(=O)Nc3ccc(F)c(C)c3)c(C)n2C)on1 [Example 304, N-(4-fluoro-3-methylphenyl)-1,2,4-trimethyl-5-(2-((3-methylisoxazol-5-yl)amino)-2-oxoacetyl)-1H-pyrrole-3-carboxamide]	5 to 30	< 0.05
Cc1cc(NC(=O)c2c(C)c(C(=O)C(=O)NC(C)C(F)(F)F)n(C)c2C)ccc1F (stereo not shown) [Example 10, N-(4-fluoro-3-methylphenyl)-1,2,4-trimethyl-5-(2-oxo-2-((1,1,1-trifluoropropan-2-yl)amino)acetyl)-1H-pyrrole-3-carboxamide]	5 to 30	< 0.05
Cc1cc(NC(=O)c2c(C)c(C(=O)C(=O)N[C@H]3CC[C@@H](O)CC3)n(C)c2C)cc(Cl)n1 [Example 628, N-(2-chloro-6-methylpyridin-4-yl)-5-(2-(((1s,4s)-4-hydroxycyclohexyl)amino)-2-oxoacetyl)-1,2,4-trimethyl-1H-pyrrole-3-carboxamide]	> 30	< 0.05
Cc1noc([C@@H](NC(=O)C(=O)c2c(C)c(C(=O)Nc3ccc(F)c(C)c3)c(C)n2C)C(C)C)n1 [Example 145, (S)-N-(4-fluoro-3-methylphenyl)-1,2,4-trimethyl-5-(2-((2-methyl-1-(3-methyl-1,2,4-oxadiazol-5-yl)propyl)amino)-2-oxoacetyl)-1H-pyrrole-3-carboxamide]	> 30	< 0.05
Cc1cc(NC(=O)c2c(C)c(C(=O)C(=O)NCCc3ccsc3)n(C)c2C)ccc1F [Example 646, N-(4-fluoro-3-methylphenyl)-1,2,4-trimethyl-5-(2-oxo-2-((2-(thiophen-3-yl)ethyl)amino)acetyl)-1H-pyrrole-3-carboxamide]	5 to 30	< 0.05
Cc1cc(NC(=O)c2c(C)c(C(=O)C(=O)NC3CCN(c4cccnn4)CC3)n(C)c2C)ccc1F [Example 660, N-(4-fluoro-3-methylphenyl)-1,2,4-trimethyl-5-(2-oxo-2-((1-(pyridazin-3-yl)piperidin-4-yl)amino)acetyl)-1H-pyrrole-3-carboxamide]	> 30	< 0.05
